Reference: US20100144853A1, “NOVEL COMBINED ADMINISTRATION” (priority 2008, published 2010)

How the values were obtained:
Type in all cases: in vitro ADME
[1] = Stability of COMPOUND A in human intestinal fluids, Procedure F (suspension, no separation of excess), first table; settings: fasted HIF
Method: (§1) Fasted Intestinal Fluids: the fluids from 4 different subjects were collected with a naso-jejunal tube after fasting overnight and pooled.
(§2) Procedure F (COMPOUND A and COMPOUND B in suspension, the degradation immediately stopped without separation of excess compound): Stock K=COMPOUND B suspension (0.5 mg/mL)
(§3) Dilute 1 part of COMPOUND B suspension (stock J) with 3 parts of FeSSIF pH6.5 solution.
(§4) 500 μL of freshly thawed intestinal fluids (fasted and stimulated state) were added to 1.2 mg of COMPOUND A in a 1 mL glass vial. The suspended compound was stirred for 15 min at 37° C. to obtain wetting and a homogenous suspension. In parallel, 4 glass vials were prepared with 20 μL of a COMPOUND B suspension at different concentrations. These concentrations were obtained by mixing FeSSIF pH6.5 and COMPOUND B suspension (stock K) in different ratios, respectively 1:[…], 1:1, 0:1 to obtain 0, 1, 2 and 4% related to COMPOUND A. At time zero, 100 μL of COMPOUND A suspension preincubated at 37° C. were added to the 20 μL COMPOUND B suspension. The mixture was incubated at 37° C. with gentle stirring. After 15 min and 60 min, the reaction was stopped by mixing a 50 μL sample with 150 μL isopropanol and centrifuged at 5′000 rpm during 5 min. The clear supernatant was analyzed for the hydrolysis product and its oxidized form by HPLC.

[2] = Stability of COMPOUND A in human intestinal fluids, Procedure F (suspension, no separation of excess), second table; settings: fasted HIF
Method: (§5) Stimulated Intestinal Fluids: the fluids from 3 different subjects were collected after fasting overnight with a nasojejunal tube and pooled. For the stimulation, twenty minutes before the beginning of the collection, volunteers were provided with chewing-gums and were asked to chew over a 15 minutes period, maintaining the taste by replacing the sticks of gum approximately every 2 minutes.
as §2, §3, §4

[3] = Stability of COMPOUND A in human intestinal fluids, Procedure E (suspension, excess separated by centrifugation), stimulated; settings: HIF-stimulated
Method: as §5
(§6) Procedure E (COMPOUND A and COMPOUND B in Suspension, Excess Compound Separated by Centrifugation):
(§7) Stock J=COMPOUND B suspension (2 mg/mL)
(§8) 100 μL of FeSSIF concentrate and 900 μL of pro-FeSSIF pH6.5 were added to 4 mg commercially available Orlistat formulation (Xenical®) containing 2 mg of lipase inhibitor 1-(3-hexyl-4-oxo-oxetan-2-yl)tridecan-2-yl 2-formyl-amino-4-methyl-pentanoate (COMPOUND B) in a vial and the formulation was dispersed by gently stirring during 15 min to obtain a fine homogenous suspension.
(§9) 500 μL of freshly thawed intestinal fluids (fasted and stimulated state) were added to 1 mg of COMPOUND A in a 1 mL glass vial immediately followed by the addition of either 0, 10 or 20 μL of COMPOUND B suspension (stock J) corresponding to 0, 40 or 80 μg/mL of COMPOUND B. The amount of COMPOUND B was 0, 2% or 4% COMPOUND B relative to COMPOUND A. The mixture was incubated at 37° C. with gentle stirring. Samples of 90 μL were removed as function of time and centrifuged at 13′000 rpm (about 12′000×g) for 5 min. 50 μL of the supernatant was diluted with 150 μL isopropanol, centrifuged at 5′000 rpm for 5 min and the clear supernatant was analyzed by HPLC.

[4] = Stability of COMPOUND A in human intestinal fluids, Procedure E (suspension, excess separated by centrifugation), fasted; settings: HIF-fasted
Method: as §1, §6, §7, §8, §9

[5] = COMPOUND B 0 μg/mL (0%), T = 15 min
[6] = COMPOUND B 0 μg/mL (0%), T = 60 min
[7] = COMPOUND B 20 μg/mL (1%), T = 15 min
[8] = COMPOUND B 20 μg/mL (1%), T = 60 min
[9] = COMPOUND B 40 μg/mL (2%), T = 15 min
[10] = COMPOUND B 40 μg/mL (2%), T = 60 min
[11] = COMPOUND B 80 μg/mL (4%), T = 15 min
[12] = COMPOUND B 80 μg/mL (4%), T = 60 min
[13] = with 40 μg/mL of COMPOUND B, 15 min
[14] = with 40 μg/mL of COMPOUND B, 30 min
[15] = with 40 μg/mL of COMPOUND B, 1 h
[16] = with 40 μg/mL of COMPOUND B, 2 h
[17] = with 40 μg/mL of COMPOUND B, 4 h
[18] = with 80 μg/mL of COMPOUND B, 15 min
[19] = with 80 μg/mL of COMPOUND B, 30 min
[20] = with 80 μg/mL of COMPOUND B, 1 h
[21] = with 80 μg/mL of COMPOUND B, 2 h
[22] = with 80 μg/mL of COMPOUND B, 4 h

Concentration of COMPOUND A [1, 5]: 1111.92 µg/mL | Concentration of COMPOUND A [1, 6]: 182.50 µg/mL | Concentration of COMPOUND A [1, 7]: 1299.01 µg/mL | Concentration of COMPOUND A [1, 8]: 718.26 µg/mL | Concentration of COMPOUND A [1, 9]: 1381.23 µg/mL | Concentration of COMPOUND A [1, 10]: 598.81 µg/mL | Concentration of COMPOUND A [1, 11]: 1728.95 µg/mL | Concentration of COMPOUND A [1, 12]: 826.93 µg/mL | Concentration of COMPOUND A [2, 5]: 1569.58 µg/mL | Concentration of COMPOUND A [2, 6]: 400.63 µg/mL | Concentration of COMPOUND A [2, 7]: 2034.38 µg/mL | Concentration of COMPOUND A [2, 8]: 1503.21 µg/mL | Concentration of COMPOUND A [2, 9]: 2163.01 µg/mL | Concentration of COMPOUND A [2, 10]: 1515.41 µg/mL | Concentration of COMPOUND A [2, 11]: 1945.50 µg/mL | Concentration of COMPOUND A [2, 12]: 1449.03 µg/mL | Concentration of COMPOUND A [3, 13]: 0.74 µg/mL | Concentration of COMPOUND A [3, 14]: 0.55 µg/mL | Concentration of COMPOUND A [3, 15]: 10.53 µg/mL | Concentration of COMPOUND A [3, 16]: 32.71 µg/mL | Concentration of COMPOUND A [3, 17]: 221.31 µg/mL | Concentration of COMPOUND A [3, 18]: 1.00 µg/mL | Concentration of COMPOUND A [3, 19]: 11.80 µg/mL | Concentration of COMPOUND A [3, 20]: 64.63 µg/mL | Concentration of COMPOUND A [3, 21]: 131.64 µg/mL | Concentration of COMPOUND A [3, 22]: 171.25 µg/mL | Concentration of COMPOUND A ([3]; without COMPOUND B, 15 min): 3.09 µg/mL | Concentration of COMPOUND A ([3]; without COMPOUND B, 30 min): 0.52 µg/mL | Concentration of COMPOUND A ([3]; without COMPOUND B, 1 h): 0.62 µg/mL | Concentration of COMPOUND A ([3]; without COMPOUND B, 2 h): 0.82 µg/mL | Concentration of COMPOUND A ([3]; without COMPOUND B, 4 h): 1.31 µg/mL | Concentration of COMPOUND A [4, 13]: 1.12 µg/mL | Concentration of COMPOUND A [4, 14]: 11.75 µg/mL | Concentration of COMPOUND A [4, 15]: 111.05 µg/mL | Concentration of COMPOUND A [4, 16]: 217.35 µg/mL | Concentration of COMPOUND A [4, 17]: 281.66 µg/mL | Concentration of COMPOUND A [4, 18]: 5.62 µg/mL | Concentration of COMPOUND A [4, 19]: 16.36 µg/mL | Concentration of COMPOUND A [4, 20]: 89.60 µg/mL | Concentration of COMPOUND A [4, 21]: 230.34 µg/mL | Concentration of COMPOUND A [4, 22]: 336.00 µg/mL | Concentration of COMPOUND A ([4]; without COMPOUND B, 15 min): 1.62 µg/mL | Concentration of COMPOUND A ([4]; without COMPOUND B, 30 min): 1.86 µg/mL | Concentration of COMPOUND A ([4]; without COMPOUND B, 1 h): 0.49 µg/mL | Concentration of COMPOUND A ([4]; without COMPOUND B, 2 h): 0.49 µg/mL | Concentration of COMPOUND A ([4]; without COMPOUND B, 4 h): 0.49 µg/mL
SMILES: CCC(CC)CC1(C(=O)Nc2ccccc2SC(=O)C(C)C)CCCCC1 [COMPOUND A, thioisobutyric acid S-(2-{[1-(2-ethyl-butyl)-cyclohexanecarbonyl]-amino}-phenyl)ester]
